Patent US12617779B2, “Self degradation-type CDK9 inhibitor prodrug and liposome encapsulating same” (Sumitomo Pharma Co., Ltd., priority 2021, dated 2026)
Counter-ions that a name gives are not always drawn.

How the values were obtained:
[1] = Stability evaluation of liposome formulation under storage conditions (Experimental Example 5); format: physicochemical; conditions: for Change of Alvocidib content in liposome formulation: 5° C.; for Alvocidib content % in liposome formulation: liposome formulation stored at 5° C.
Experimental: For Example 1, Example 2, Example 5, Example 6, Example 7, Example 8, Comparative Example 7 and Comparative Example 9, the storage stability of liposome formulation was evaluated by the following method.
For the liposome formulations of Example 1, Example 2, Example 5, Example 6, Example 7, Example 8, Comparative Example 7, and Comparative Example 9, the liposome outer solution was replaced with 10% sucrose solution or 10 mM tartrate buffer solution/10% sucrose solution (pH 4) using Sephadex G-25 column (PD-10, manufactured by GE Healthcare) or a dialysis cassette (Slide-A-Lyzer G2 Dialysis Cassettes 20K MWCO, manufactured by Thermo Scientific) to remove unencapsulated compound. The liposome formulation was filtered through a 0.22 μm membrane filter, and stored at 5° C. After 0 to 18 months, the Alvocidib content in the liposome formulations of Example 1, Example 2, Example 5, Example 6, Example 7, Example 8, Comparative Example 7 and Comparative Example 9 was determined by HPLC.
The HPLC measurement conditions are as follows.

[2] = Evaluation of conversion rate to active form in human plasma (Experimental Example 3); format: in vitro ADME; conditions: 0.2 μmol/L; for Conversion to Alvocidib in human plasma: Examples up to 60 minutes, Comparative Examples up to 120 minutes
Outline: (§1)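 Test compound at 0.2 μmol/L was incubated at 37° C in human or BALB/c mouse plasma and sampled at 0, 30 and 60 min or at 0, 60 and 120 min. Compound and Alvocidib were quantified by LC-MS/MS peak area. Attrition is relative to 0 min; conversion is relative to 0.2 μmol/L Alvocidib reference.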

[3] = Evaluation of conversion rate to active form in BALB/c mouse plasma (Experimental Example 3); format: in vitro ADME; conditions: 0.2 μmol/L; for Conversion to Alvocidib in BALB/c mouse plasma: Examples up to 60 minutes, Comparative Examples up to 120 minutes
Outline: as §1

[4] = tested on: A673 cells; assay: Drug efficacy evaluation test using tumor-bearing mice transplanted with A673 cells (Experimental Example 8); format: in vivo, BALB/c mice; conditions: liposome formulation, tail vein, 50 mg/kg twice a week
Experimental: The liposome formulation encapsulating the compound of the present disclosure was treated and evaluated for anti-tumor effect and weight loss.
The liposome formulations were prepared as follows. The liposomes encapsulating the compounds of Example 1, Example 2, Example 5 and Example 6 were prepared in the same manner as in Experimental Example 4, respectively. The liposome outer solution was replaced with 10 mM tartrate buffer solution/10% sucrose solution (pH4.0) using a dialysis cassette (Slide-A-Lyzer G2 Dialysis Cassettes 20K MWCO, manufactured by Thermo Scientific), followed by filtration through a 0.22 μm membrane filter.
A673 cells (ATCC) were intradermally transplanted into 5-week-old BALB/c mice (CAnN.Cg-Foxnlnu/CrlCrlj, female, Charles River, Japan) around the ventral region at 3×10^6 cells/mouse. After confirming the engraftment of A673 cells 6 days after transplantation, they were divided into groups based on tumor diameter and body weight, and liposome formulations encapsulating Example 1, Example 2, Example 5 and Example 6 were administered through the tail vein at dose of 50 mg/kg twice a week, respectively. […] The tumor volume was measured over time from the start of administration, and the tumor volume reduction effect due to compound administration was evaluated. The tumor volume was calculated by the following formula using the short and long diameters of the tumor measured with an electronic caliper (Mitutoyo). For comparison in this test, an empty liposome solution prepared in the same manner as in Experimental Example 1 was used.
The anti-tumor effect was evaluated by comparing the control group administered with the empty liposome solution and the administration group of the compound of the present disclosure, and calculating T/C by the following formula.

Structure (SMILES) | Residual rate (%) of test compound ([2]; Human plasma, 37° C., 0 min) | Residual rate (%) of test compound ([2]; Human plasma, 37° C., 30 min) | Residual rate (%) of test compound ([2]; Human plasma, 37° C., 60 min) | Conversion to Alvocidib in human plasma ([2]; 37° C.) | Conversion to Alvocidib in BALB/c mouse plasma ([3]; 37° C.) | Residual rate (%) of test compound ([3]; Mouse plasma, 37° C., 0 min) | Residual rate (%) of test compound ([3]; Mouse plasma, 37° C., 30 min) | Residual rate (%) of test compound ([3]; Mouse plasma, 37° C., 60 min) | Effect on tumor volume [4] | further results
CCN(CC1CCCCN1)C(=O)Oc1cc(O)c2c(=O)cc(-c3ccccc3Cl)oc2c1[C@H]1CCN(C)C[C@H]1O (stereo partly drawn) [Example 7, 2-(2-chlorophenyl)-5-hydroxy-8-[(3S,4R)-3-hydroxy-1-methylpiperidin-4-yl]-4-oxo-4H-1-benzopyran-7-yl ethyl[(piperidin-2-yl)methyl]carbamate dihydrochloride] |  |  |  |  |  |  |  |  |  | Change of Alvocidib content in liposome formulation ([1]; after 15 months): hardly increased
CCCN(C[C@@H]1CCCCN1)C(=O)Oc1cc(O)c2c(=O)cc(-c3ccccc3Cl)oc2c1[C@H]1CCN(C)C[C@H]1O [Example 5, 2-(2-chlorophenyl)-5-hydroxy-8-[(3S,4R)-3-hydroxy-1-methylpiperidin-4-yl]-4-oxo-4H-1-benzopyran-7-yl {[(2S)-piperidin-2-yl]methyl}propylcarbamate] | 100% | 1% | 0% | proceeded rapidly | proceeded rapidly | 100% | 36% | 8% | inhibited the increase in tumor volume | 
CCN(C[C@H]1CCCCN1)C(=O)Oc1cc(O)c2c(=O)cc(-c3ccccc3Cl)oc2c1[C@H]1CCN(C)C[C@H]1O [Example 2, 2-(2-chlorophenyl)-5-hydroxy-8-[(3S,4R)-3-hydroxy-1-methylpiperidin-4-yl]-4-oxo-4H-1-benzopyran-7-yl ethyl{[(2R)-piperidin-2-yl]methyl}carbamate] | 100% | 4% | 2% | proceeded rapidly | proceeded rapidly | 100% | 25% | 4% | inhibited the increase in tumor volume | Weight loss of 10% or more compared to the start of administration [4]: without weight loss
CCN(C[C@@H]1CCCCN1)C(=O)Oc1cc(O)c2c(=O)cc(-c3ccccc3Cl)oc2c1[C@H]1CCN(C)C[C@H]1O [Example 1, 2-(2-chlorophenyl)-5-hydroxy-8-[(3S,4R)-3-hydroxy-1-methylpiperidin-4-yl]-4-oxo-4H-1-benzopyran-7-yl ethyl{[(2S)-piperidin-2-yl]methyl}carbamate ditrifluoroacetate] | 100% | 6% | 0% | proceeded rapidly | proceeded rapidly | 100% | 24% | 3% | significantly inhibited the increase in tumor volume | Weight loss of 10% or more compared to the start of administration [4]: without weight loss
CN1CC[C@H](c2c(OC(=O)N(C)C[C@@H]3CCCCN3)cc(O)c3c(=O)cc(-c4ccccc4Cl)oc23)[C@H](O)C1 [Example 3, 2-(2-chlorophenyl)-5-hydroxy-8-[(3S,4R)-3-hydroxy-1-methylpiperidin-4-yl]-4-oxo-4H-1-benzopyran-7-yl methyl{[(2S)-piperidin-2-yl]methyl}carbamate] | 100% | 3% | 0% | proceeded rapidly | proceeded rapidly | 100% | 8% | 0% |  | 
CN1CC[C@H](c2c(O)cc(O)c3c(=O)cc(-c4ccccc4Cl)oc23)[C@H](OC(=O)[C@@H](N)CO)C1 [Comparative Example 9, reference compound] |  |  |  |  |  |  |  |  |  | Production rate (%) of Alvocidib ([2]; human, 0 min): 3%; Residual rate (%) of test compound ([2]; human, 0 min): 100%; Production rate (%) of Alvocidib ([2]; human, 60 min): 18%; Residual rate (%) of test compound ([2]; human, 60 min): 85%; Production rate (%) of Alvocidib ([2]; human, 120 min): 25%; Residual rate (%) of test compound ([2]; human, 120 min): 80%; Production rate (%) of Alvocidib ([3]; BALB/c, mouse, 0 min): 3%; Residual rate (%) of test compound ([3]; BALB/c, mouse, 0 min): 100%; Production rate (%) of Alvocidib ([3]; BALB/c, mouse, 60 min): 33%; Residual rate (%) of test compound ([3]; BALB/c, mouse, 60 min): 70%; Production rate (%) of Alvocidib ([3]; BALB/c, mouse, 120 min): 43%; Residual rate (%) of test compound ([3]; BALB/c, mouse, 120 min): 54%; Alvocidib content % in liposome formulation ([1]; 0 month): 1.17%; Alvocidib content % in liposome formulation ([1]; 6 months): 27.2%; Change of Alvocidib content in liposome formulation ([1]; at 6 to 7 months): significant increase
C[C@H](N)C(=O)O[C@@H]1CN(C)CC[C@@H]1c1c(O)cc(O)c2c(=O)cc(-c3ccccc3Cl)oc12 [Comparative Example 7, reference compound] |  |  |  |  |  |  |  |  |  | Production rate (%) of Alvocidib ([2]; human, 0 min): 6%; Residual rate (%) of test compound ([2]; human, 0 min): 100%; Production rate (%) of Alvocidib ([2]; human, 60 min): 26%; Residual rate (%) of test compound ([2]; human, 60 min): 77%; Production rate (%) of Alvocidib ([2]; human, 120 min): 32%; Residual rate (%) of test compound ([2]; human, 120 min): 65%; Production rate (%) of Alvocidib ([3]; BALB/c, mouse, 0 min): 1%; Residual rate (%) of test compound ([3]; BALB/c, mouse, 0 min): 100%; Production rate (%) of Alvocidib ([3]; BALB/c, mouse, 60 min): 64%; Residual rate (%) of test compound ([3]; BALB/c, mouse, 60 min): 25%; Production rate (%) of Alvocidib ([3]; BALB/c, mouse, 120 min): 79%; Residual rate (%) of test compound ([3]; BALB/c, mouse, 120 min): 10%; Alvocidib content % in liposome formulation ([1]; 0 month): 0.56%; Alvocidib content % in liposome formulation ([1]; 7 months): 23.2%; Change of Alvocidib content in liposome formulation ([1]; at 6 to 7 months): significant increase
CN1CC[C@H](c2c(OC(=O)N(C)C[C@H]3CCCCN3)cc(O)c3c(=O)cc(-c4ccccc4Cl)oc23)[C@H](O)C1 [Example 4, 2-(2-chlorophenyl)-5-hydroxy-8-[(3S,4R)-3-hydroxy-1-methylpiperidin-4-yl]-4-oxo-4H-1-benzopyran-7-yl methyl{[(2R)-piperidin-2-yl]methyl}carbamate] | 100% | 4% | 4% | proceeded rapidly | proceeded rapidly | 100% | 5% | 3% |  | 
CN1CC[C@H](c2c(OC(=O)N(C)CC3CCCCN3)cc(O)c3c(=O)cc(-c4ccccc4Cl)oc23)[C@H](O)C1 (stereo partly drawn) [Example 8, 2-(2-chlorophenyl)-5-hydroxy-8-[(3S,4R)-3-hydroxy-1-methylpiperidin-4-yl]-4-oxo-4H-1-benzopyran-7-yl methyl[(piperidin-2-yl)methyl]carbamate] |  |  |  |  |  |  |  |  |  | Change of Alvocidib content in liposome formulation ([1]; after 18 months): hardly increased
CCCN(C[C@H]1CCCCN1)C(=O)Oc1cc(O)c2c(=O)cc(-c3ccccc3Cl)oc2c1[C@H]1CCN(C)C[C@H]1O [Example 6, 2-(2-chlorophenyl)-5-hydroxy-8-[(3S,4R)-3-hydroxy-1-methylpiperidin-4-yl]-4-oxo-4H-1-benzopyran-7-yl {[(2R)-piperidin-2-yl]methyl}propylcarbamate] | 100% | 3% | 2% | proceeded rapidly | proceeded rapidly | 100% | 26% | 2% | inhibited the increase in tumor volume | 
